Reference: patent US20100305198A1, “CATIONIC LIPIDS” (THE UNIVERSITY COURT OF THE UNIVERSITY OF EDINBURG, priority 2007, published 2010)

Key:
HeLa cells = assay: Transfection of pEGFP-C1 into HeLa cell line (GFP expression by flow cytometry); format: cell-based, Human
Protocol: (§1) The corresponding cationic lipid 6a-l (1 mM in methanol) with or without DOPE (1 mM in methanol) were mixed in different proportions and the organic solvent removed by evaporation in an oven (37° C.) overnight. The resultant thin films were then hydrated with PBS. The solutions were vortexed (10-20 s) and incubated at ambient temperature for 30 min. Plasmid DNA or siRNA solution (0.04 mg/mL in PBS or another isotonic solution) was subsequently added and the solution vortexed (10-20 s). The lipoplexes were incubated at room temperature for 30 min before being used.
Human HeLa cells were grown in RPMI supplemented with 4 mM glutamine, 10% FCS and 100 units/ml penicillin/streptomycin (RPMI-CM) until 80% confluence. Cells were then suspended using trypsin/EDTA and counted. 2×10^4 cells in 150 μL of RPMI-CM per well were seeded in 96 well plates and incubated overnight. The day afterwards, the different lipoplex formulations were added. Each experiment was performed in quadruplicate, using Effectene® Transfection Reagent (Qiagen) and Lipofectamine™ 2000 (Invitrogen) as positive control and untreated cells as negative control.
After incubation for two days at 37° C. and 5% CO2 (the change of media after transfection was not necessary), the green fluorescent protein (GFP) expression, consequence of transfecting the pEGFP-C1, was evidenced using a fluorescent microscope (Leica) and measured by flow cytometry. For the flow cytometry analysis, cells were washed twice with PBS, detached with trypsin/EDTA, harvested with 2% ferum bovine serum (FBS) in PBS, centrifuged and resuspended with 2% FBS in PBS and analyzed using a BD FACSaria flow cytometer. Transfection efficiency was measured as percentage of transfected cells and total mean fluorescence. […] The number of cells analyzed per sample was 10,000. […] Each point represents a cell. The second column of graphs represents cell number in the y-axis and fluorescence intensity in the x-axis. All the graphs have been divided into two populations of cells according with the fluorescence intensity in order to give a reference for the transfection analysis: in the untransfected cell control P1 comprises 95% of the total number of cells analyzed; when cells are transfected with compound 6f P1 comprises 19.1% of the total number of cells analyzed; within the cells transfected with Effectene® Transfection Reagent P1 comprises 35.8% of the total number of cells analyzed; when cells transfected with Lipofectamine™ 2000, P1 comprises 49.8% of the total number of cells analyzed. FITC-A Mean is the mean fluorescence (arbitrary units) calculated for each population. The mean fluorescence calculated for P2 of the cells transfected with compound 6f is 120,059, which is, by far, the best result of (A)-(D).

[1] = system: human embryonic kidney (HEK) 293T cell line; assay: Transfection of pEGFP-C1 into HEK293T cell line (flow cytometry); format: cell-based
Protocol: as §1

[2] = system: B16F10 mouse melanoma cells; assay: Transfection of pEGFP-C1 into B16F10 cell line (flow cytometry); format: cell-based
Protocol: as §1

mouse lung = assay: In vivo transfection of luciferase-reporter plasmid (pLux) by intratracheal instillation and non-invasive luminescence imaging
Protocol: Mice were anesthetized and intubated following standard protocols. 16 μg of a luciferase-reporter plasmid (pLux, 4-6 mg/mL in PBS or another isotonic buffer) was complexed with Oleyl derivative 6i (N/P 12, 1:2 mol mixture with DOPE) following the protocol described before. Lipoplex formulation (total volume=50 μL) and naked plasmid (16 μg of plasmid in 50 μL of PBS) were then administrated into the lung by direct intratracheal instillation through peroral intubation.
Firefly luciferin (15 mg/kg) was intraperitoneally administrated to the anesthetized mice half an hour before scanning for luminescence. Mice were then imaged every 2 minutes using an IVIS SPECTRUM imaging device. FIGS. 9 and 10 show the non-invasive in vivo luminescence imaging of anesthetized mice transfected with 16 μg of a luciferase-reporter plasmid (pLux) complexed with derivative 6i (left mouse) and naked plasmid (right mouse) 72 and 120 hours after instillation respectively.

GFP-expressing mES cells = assay: Transfection of siRNA into GFP-expressing mouse stem cells (GFP knock-down, flow cytometry); format: cell-based; conditions: 48 h
Protocol: as §1
mES cells were grown in GMEM supplemented with 4 mM glutamine and 10% FBS in the absence of antibiotic until 80% confluence. Cells were then suspended using trypsin/EDTA and counted. 2×10^4 cells in 150 μL of GMEM-CM per well were seeded in 96-well plates and incubated overnight. The day afterwards, the different lipoplex formulations were added. […]
After incubation for two days at 37° C. and 5% CO2 (change of media after transfection was not necessary), the green fluorescent protein (GFP) reduced expression was measured by flow cytometry. For the flow cytometry analysis, cells were washed twice with PBS, detached with trypsin/EDTA, harvested with 2% FBS in PBS, centrifuged and resuspended with 2% FBS in PBS and analyzed using a BD FACSaria flow cytometer. […] In Vivo Transfection and Non-Invasive Luminescence Imaging from Living Mice

SMILES: CCCCCCCCC=CCCCCCCCCOC(=O)CCC(=O)NC(COC(=O)CCCN)(COC(=O)CCCN)COC(=O)CCCN [Compound 13b, 9-octadecenyl [tris(4-aminobutanoyloxymethyl)methyl]amidosuccinate]
- Percentage of transfected (GFP-expressing, fluorescent) cells (HeLa cells; HeLa 48 hours after transfection with GFP-reporter plasmid, FIG. 6): 79%

SMILES: CCCCCCCCC=CCCCCCCCC(=O)NC(COC(=O)CCCN)(COC(=O)CCCN)COC(=O)CCCN [Compound 6i, N-[tris-(4-aminobutiryloximethyl)methyl]-9-octadecenamide]
- % of GFP-expressing cells calculated via flow cytometry [1]: 54%
- % of GFP-expressing cells calculated via flow cytometry [2]: 61%
- In vivo luminescence after luciferin (mouse lung; 16 μg pLux complexed with lipid (N/P 12, 1:2 mol mixture with DOPE), intratracheal instillation, 72 and 120 hours after instillation): positive luminescence was detected
- Health of mice during the study (mouse lung; lipoplex instilled into the lung, followed on a daily basis): behaved healthily

SMILES: CCCCCCCCCCCCCCC(=O)NC(COC(=O)CCCN)(COC(=O)CCCN)COC(=O)CCCN [Compound 6f, N-[tris-(4-aminobutiryloximethyl)methyl]pentadecamide]
- P1 population as % of the total number of cells analyzed (HeLa cells; HeLa 48 h after transfection with reporter plasmid, 10,000 cells per sample, P1 = 95% in untransfected control, 6f at N/P 12, 1:2 mol mixture with DOPE): 19.1%
- Mean fluorescence (FITC-A Mean) calculated for P2 (HeLa cells; HeLa 48 h after transfection, N/P 12, 1:2 mol mixture with DOPE): 120,059 arbitrary units
- Transfection of HeLa cells compared with the positive controls (Lip2000 and Effectene) (HeLa cells; pEGFP-C1, 48 h, N/P ratio 12, 1:2 mol mixture with DOPE): much better than the two positive controls
- % of GFP-expressing cells calculated via flow cytometry [1]: 62%
- % of GFP-expressing cells calculated via flow cytometry [2]: 43%
- Knock-down of GFP expression compared with Lipofectamine 2000 (GFP-expressing mES cells; GFP-expressing mES cells): better than Lipofectamine™ 2000
- Knock-down of GFP expression (GFP-expressing mES cells; GFP-transformed mouse stem cells, N/P 12, 1:2 mol mixture with DOPE, preliminary assays): 40%
